The values below come from patent publication US20250189537A1, “MULTI-FLUORESCENCE MICROFLUIDIC PLATFORM FOR EVALUATING RISKS OF SHEAR-DRIVEN ARTERIAL THROMBOSIS AND FAST ANTITHROMBOTIC DRUG SCREENING” (Board of Regents, The University of Texas System, priority 2023, published 2025).

Counter-ions that a name gives are not always drawn.

Series [1] has as its system biomechanical platelet aggregation. Kind of series: Microfluidic stenosis assay (thrombus size, single fluorescence imaging). Format: cell-based, human. The following applies: for thrombus formation: replacing heparin for anticoagulation; for inhibition to the biomechanical thrombogenesis: separately and combined at twice or 20 times of human plasmatic concentrations. Here is the method: Microfluidic devices with single-hump stenosis microchannels can be coated with VWF monomer solution. Heparin added whole blood is incubated with DiOC6 (3), or with a set of predetermined sensors. As used herein, a sensor is a compound or protein (e.g., antibody) that specifically binds a selected molecule, peptide, or protein present in a thrombus, the sensor can optionally include a detectable tag. A detectable tag can include but is not limited to a fluorescent tag. In certain aspects a first sensor set (Sensor Set 1) can include one or more of SZ22-FITC, Fg-Alexa Fluor® 405, 2.2.9-Alexa Fluor® 555 and AK4-Alexa Fluor® 647. In certain aspects a second sensor set (Sensor Set 2) can include SZ22-FITC, Annexin V-Pacific Blue, MBC 370.2-Alexa Fluor® 555 and PAC-1-Alexa Fluor® 647. A thrombogenic sample, e.g., blood, can be introduced via a reservoir at a microchannel inlet and perfused through the microchannel at a predetermined flow rate. In certain aspects the sample is moved through the microchannel using a pump withdraw mode via a syringe or similar apparatus connected to a microchannel outlet. The microchannel at the site of stenosis can be recorded in real time with multi-fluorescence imaging using appropriate equipment. In certain aspects the multi-fluorescence imaging is performed with a LED5 fluorescence light source and a multi-pass filter (excitation-emission: 391/32-435/30, 479/33-519/25, 554/24-594/32 and 638/31-695/58 nm). Autofluorescence of platelets can be detected in the 391/32-435/30 nm channel (Lohmann and Lohmann, Biochemical and biophysical research communications 152, 1410-1415, 1988), the signal intensity of which can be subtracted when calculating signals from other sensors.
Thrombus profiling assay: development and validation. Each microfluidic chip is composed of 10 rectangular (width×height: 200 μm×50 μm) channels with respective inlets and outlets for tubing connection (FIG. 1A, 1B). A pump drives a syringe to perfuse heparinized blood (0.5 mL) through the channel pre-coated with VWF. An 80% stenosis site stimulates biomechanical thrombogenesis (FIG. 1C). A perfusion rate of 18 μL min^−1 was selected, which creates a wall shear stress (WSS) of 857 dyn cm^−2 at the stenosis site according to fluid dynamics simulation (FIG. 1D). The same stenosis site WSS is achieved by an inlet wall shear rate of 1485 s-1 in a circular vessel with the same cross-sectional area, mimicking human arterioles (Yakusheva et al. Blood advances 6, 4834-46), human arteries during systole, and mouse arteries (Panteleev et al., Journal of thrombosis and haemostasis JTH 19, 588-95). The calculated Reynolds numbers in channels of different shapes are also within the same scale. […]

Series [2] concerns ADP or collagen-induced platelet aggregation. The following applies: at much lower concentrations; cited from earlier work.
The conditions of series [3]: phase III trials; cited from earlier work.

For the molecule `O=C(O)CN(CCN(CC(=O)O)CC(=O)O)CC(=O)O` [EDTA, ethylenediaminetetraacetic acid], the thrombus formation result in series [1] is “attenuated”.

In the case of `CC(=O)Oc1ccccc1C(=O)O` [aspirin], the “inhibition to the biomechanical thrombogenesis” value in series [1] is reported as “negligible inhibition”. Also, the “inhibition of ADP or collagen-induced platelet aggregation” value in series [2] is “significantly inhibit”.

Turning to `O=C(O)CC(O)(CC(=O)O)C(=O)O` [citrate, sodium citrate], the thrombus formation entry in series [1] is “attenuated”.

For the molecule `COC(=O)[C@H](c1ccccc1Cl)N1CCc2sccc2C1` [clopidogrel], the “inhibition to the biomechanical thrombogenesis” value in series [1] is reported as “negligible inhibition”. For the same molecule, in series [2], the “inhibition of ADP or collagen-induced platelet aggregation” value is on record as “significantly inhibit”.

In the case of `CCOC(=O)CCNC(=O)N[C@H]1CCN(c2ccc(C(=N)N)cc2)C1=O` [orbofiban], the “patient mortality vs placebo” value in series [3] is “significantly increased”.
